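Five compound concentrations were applied to cells in 96-well plates for 48 hours; endpoints were derived by simple linear interpolation of the resulting dose-response curve. At the GI50, growth is halved.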 Calls of active or inactive are those of the source. Cut-off read from the data, not from the text of the source: active = GI50 up to about 1.1 µM and inactive = higher.
Tests used:
Assay in all cases: NCI tumour cell line growth inhibition, 48 h
U-251 = system: U-251
SK-MEL-28 = system: SK-MEL-28
NCI-H522 = system: NCI-H522
786-0 = system: 786-0
SK-OV-3 = system: SK-OV-3
EKVX = system: EKVX
MOLT-4 = system: MOLT-4
SK-MEL-2 = system: SK-MEL-2
UACC-62 = system: UACC-62
HOP-92 = system: HOP-92
DMS-114 = system: DMS-114
OVCAR-5 = system: OVCAR-5
A498 = system: A498
UACC-257 = system: UACC-257
SN12C = system: SN12C
HCT-15 = system: HCT-15

SMILES | GI50 (U-251) | GI50 (SK-MEL-28) | GI50 (NCI-H522) | GI50 (786-0) | GI50 (SK-OV-3) | GI50 (EKVX) | GI50 (MOLT-4) | GI50 (SK-MEL-2) | GI50 (UACC-62) | GI50 (HOP-92) | GI50 (DMS-114) | GI50 (OVCAR-5) | GI50 (A498) | GI50 (UACC-257) | GI50 (SN12C) | GI50 (HCT-15) [µM]
CC(=O)C1CCN(c2ccccc2)C1 (stereo not drawn) | > 100 µM (inactive) | > 100 µM (inactive) | > 100 µM (inactive) | > 100 µM (inactive) | > 100 µM (inactive) | > 100 µM (inactive) | > 100 µM (inactive) | > 100 µM (inactive) | > 100 µM (inactive) | > 100 µM (inactive) | > 100 µM (inactive) | > 100 µM (inactive) | > 100 µM (inactive) | > 100 µM (inactive) | > 100 µM (inactive) | –
CC(C)C(=O)N1C(=O)O[C@@H](c2ccccc2)[C@H]1C | > 100 µM (inactive) | > 100 µM (inactive) | > 100 µM (inactive) | > 100 µM (inactive) | > 100 µM (inactive) | > 100 µM (inactive) | > 100 µM (inactive) | > 100 µM (inactive) | > 100 µM (inactive) | > 100 µM (inactive) | > 100 µM (inactive) | > 100 µM (inactive) | > 100 µM (inactive) | > 100 µM (inactive) | > 100 µM (inactive) | > 100
CC([C@H]1CCC2C3CCC4CC5(CC[C@]4(C)C3CC[C@@]21C)c1ccccc1C(=O)N5C)N(C)C (stereo partly drawn) | 40.4 µM (inactive) | 17.6 µM (inactive) | 46.9 µM (inactive) | 13.9 µM (inactive) | > 100 µM (inactive) | – | 19.2 µM (inactive) | 19.7 µM (inactive) | 24.5 µM (inactive) | 50.5 µM (inactive) | 32.4 µM (inactive) | 29 µM (inactive) | 23.8 µM (inactive) | – | 31.6 µM (inactive) | 27.7
O=C(COc1ccccc1)NS(=O)(=O)c1ccccc1 | > 100 µM (inactive) | > 100 µM (inactive) | > 100 µM (inactive) | > 100 µM (inactive) | > 100 µM (inactive) | > 100 µM (inactive) | > 100 µM (inactive) | > 100 µM (inactive) | > 100 µM (inactive) | > 100 µM (inactive) | > 100 µM (inactive) | > 100 µM (inactive) | > 100 µM (inactive) | > 100 µM (inactive) | > 100 µM (inactive) | > 100
N#CC(C(=O)CCC(=O)Nc1ccc(Cl)cc1)c1ccc(Cl)cc1 (stereo not drawn) | > 100 µM (inactive) | – | > 100 µM (inactive) | > 100 µM (inactive) | > 100 µM (inactive) | > 100 µM (inactive) | > 100 µM (inactive) | > 100 µM (inactive) | 10.7 µM (inactive) | > 100 µM (inactive) | > 100 µM (inactive) | > 100 µM (inactive) | > 100 µM (inactive) | > 100 µM (inactive) | > 100 µM (inactive) | > 100
O=S(=O)(/C=C/c1ccc(Cl)cc1Cl)Cc1ccccc1CS(=O)(=O)/C=C/c1ccc(Cl)cc1Cl | > 100 µM (inactive) | > 100 µM (inactive) | > 100 µM (inactive) | > 100 µM (inactive) | > 100 µM (inactive) | > 100 µM (inactive) | 88.7 µM (inactive) | > 100 µM (inactive) | 8.38 µM (inactive) | 35.8 µM (inactive) | 31.6 µM (inactive) | > 100 µM (inactive) | 33.5 µM (inactive) | 52.8 µM (inactive) | > 100 µM (inactive) | 46.2
CN(C)C(=S)OC(Cn1cncn1)c1ccc(Cl)cc1Cl (stereo not drawn) | > 100 µM (inactive) | > 100 µM (inactive) | > 100 µM (inactive) | > 100 µM (inactive) | > 100 µM (inactive) | > 100 µM (inactive) | > 100 µM (inactive) | > 100 µM (inactive) | > 100 µM (inactive) | 72.8 µM (inactive) | > 100 µM (inactive) | > 100 µM (inactive) | > 100 µM (inactive) | > 100 µM (inactive) | > 100 µM (inactive) | > 100

Reference: ChEMBL document CHEMBL1201862, “PubChem BioAssay data set” (2004)
